Test results published in PubChem BioAssay AID330 (DTP/NCI, 2004).
Values joined by “and” are separate entries in the source; they are usually repeats but may differ in a detail not shown here. Equal values may be shown once. Inconclusive results and toxic doses are left out. The calls were made as follows: active = survival T/C of 150% or more; inactive = T/C below 125% in these data.

System: P388 leukemia ip, CD2F1 mice, survival T/C
Assay: NCI In Vivo Anticancer Drug Screen. Data for tumor model P388 Leukemia (intraperitoneal) in CD2F1 (CDF1) mice
Conditions: endpoint: median survival time, higher = longer survival
Method in brief: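 Mice carrying the transplanted tumor received test compound or vehicle. Survival was recorded in each group, and the value is the treated-group measurement divided by that of the vehicle-treated control group.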

[1] = dose: 50.0 mg/kg/injection, schedule: Q01DX009 (ip), vehicle: saline with Tween-80
[2] = dose: 100.0 mg/kg/injection, schedule: Q01DX009 (ip), vehicle: saline with Tween-80
[3] = dose: 200.0 mg/kg/injection, schedule: Q01DX009 (ip), vehicle: saline with Tween-80
[4] = dose: 50.0 mg/kg/injection, schedule: Q01DX005 (ip), vehicle: saline with Tween-80
[5] = dose: 100.0 mg/kg/injection, schedule: Q01DX005 (ip), vehicle: saline with Tween-80
[6] = dose: 50.0 mg/kg/injection, schedule: Q01DX009 (ip), vehicle: Klucel (hydroxypropylcellulose) (HPC)
[7] = dose: 100.0 mg/kg/injection, schedule: Q01DX009 (ip), vehicle: Klucel (hydroxypropylcellulose) (HPC)
[8] = dose: 200.0 mg/kg/injection, schedule: Q01DX009 (ip), vehicle: Klucel (hydroxypropylcellulose) (HPC)
[9] = dose: 200.0 mg/kg/injection, schedule: Q01DX001 (ip), vehicle: Klucel (hydroxypropylcellulose) (HPC)
[10] = dose: 25.0 mg/kg/injection, schedule: Q01DX009 (ip), vehicle: saline with Tween-80

Measured: T/C

O=C1C=CC2(CCCCC2)CC1
inactive: dose: 25.0 mg/kg/injection, schedule: Q04DX003 (ip), vehicle: Klucel (hydroxypropylcellulose) (HPC) 97 % of control | dose: 50.0 mg/kg/injection, schedule: Q04DX003 (ip), vehicle: Klucel (hydroxypropylcellulose) (HPC) 97 % of control | dose: 100.0 mg/kg/injection, schedule: Q04DX003 (ip), vehicle: Klucel (hydroxypropylcellulose) (HPC) 95 % of control

O=C1C=CC2(CCC23C=CC(=O)O3)O1 (configuration not stated)
inactive: dose: 10.0 mg/kg/injection, schedule: Q01DX009 (ip), vehicle: Klucel (hydroxypropylcellulose) (HPC) 98 % of control | dose: 20.0 mg/kg/injection, schedule: Q01DX009 (ip), vehicle: Klucel (hydroxypropylcellulose) (HPC) 106 % of control | dose: 40.0 mg/kg/injection, schedule: Q01DX009 (ip), vehicle: Klucel (hydroxypropylcellulose) (HPC) 106 % of control

CS(=O)(=O)c1cc(C(=O)O)cc(NCc2ccccc2)c1Oc1ccccc1
inactive: [1] 106 % of control | [2] 96 % of control | [3] 102 % of control

COc1ccc2nc(N/N=C/c3ccccn3)cc(C)c2c1
inactive: dose: 25.0 mg/kg/injection, schedule: Q01DX005 (ip), vehicle: saline with Tween-80 103 % of control | [4] 110 % of control and 112 % of control | [5] 103 % of control

CC(C)=C(Nc1ccccc1)NC(C)C
inactive: dose: 6.25 mg/kg/injection, schedule: Q01DX005 (ip), vehicle: saline 103 % of control | dose: 12.5 mg/kg/injection, schedule: Q01DX005 (ip), vehicle: saline 103 % of control and 104 % of control | dose: 25.0 mg/kg/injection, schedule: Q01DX005 (ip), vehicle: saline 106 % of control and 120 % of control | dose: 50.0 mg/kg/injection, schedule: Q01DX005 (ip), vehicle: saline 118 % of control

CN1CC(C2(O)CCN(C)C2=O)C(O)C1=O (configuration not stated)
inactive: dose: 100.0 mg/kg/injection, schedule: Q01DX001 (ip), vehicle: saline 104 % of control | dose: 200.0 mg/kg/injection, schedule: Q01DX001 (ip), vehicle: saline 97 % of control

COCn1cc(C(N)=O)c(=O)c2c(N)nc(SC)nc21
inactive: dose: 25.0 mg/kg/injection, schedule: Q04DX002 (ip), vehicle: saline with Tween-80 96 % of control

O=C(O)c1ccc(NC(=O)C2C(=O)C(=O)N(c3ccc(C(=O)O)cc3)C2=O)cc1 (configuration not stated)
inactive: [6] 104 % of control | [7] 100 % of control | [8] 103 % of control

CC(C)(C)c1ccc(S(=O)[O][Sn]([CH3])([CH3])[O]S(=O)c2ccc(C(C)(C)C)cc2)cc1 (configuration not stated)
inactive: dose: 50.0 mg/kg/injection, schedule: Q01DX001 (ip), vehicle: Klucel (hydroxypropylcellulose) (HPC) 110 % of control | [9] 114 % of control

CC(C)(O)[C@@H]1Cc2cc3ccc(=O)oc3cc2O1
inactive: dose: 1.0 mg/kg/injection, schedule: Q01DX005 (ip), vehicle: Klucel (hydroxypropylcellulose) (HPC) 89 % of control | dose: 2.0 mg/kg/injection, schedule: Q01DX005 (ip), vehicle: Klucel (hydroxypropylcellulose) (HPC) 102 % of control | dose: 4.0 mg/kg/injection, schedule: Q01DX005 (ip), vehicle: Klucel (hydroxypropylcellulose) (HPC) 98 % of control | dose: 8.0 mg/kg/injection, schedule: Q01DX005 (ip), vehicle: Klucel (hydroxypropylcellulose) (HPC) 96 % of control | dose: 16.0 mg/kg/injection, schedule: Q01DX005 (ip), vehicle: Klucel (hydroxypropylcellulose) (HPC) 96 % of control

CC1(C)C(=O)C=CC2(C)C1CC(O)C1(C)C2CCC2(C)C(c3ccoc3)OC(=O)C3OC321 (configuration not stated)
inactive: dose: 1.5 mg/kg/injection, schedule: Q01DX009 (ip), vehicle: Klucel (hydroxypropylcellulose) (HPC) 98 % of control | dose: 3.0 mg/kg/injection, schedule: Q01DX009 (ip), vehicle: Klucel (hydroxypropylcellulose) (HPC) 103 % of control | dose: 6.0 mg/kg/injection, schedule: Q01DX009 (ip), vehicle: Klucel (hydroxypropylcellulose) (HPC) 101 % of control | dose: 12.0 mg/kg/injection, schedule: Q01DX009 (ip), vehicle: Klucel (hydroxypropylcellulose) (HPC) 102 % of control

CC(C)/[N+]([O-])=N\O
inactive: dose: 3.0 mg/kg/injection, schedule: Q01DX005 (ip), vehicle: Klucel (hydroxypropylcellulose) (HPC) 101 % of control | dose: 6.0 mg/kg/injection, schedule: Q01DX005 (ip), vehicle: Klucel (hydroxypropylcellulose) (HPC) 98 % of control | dose: 12.0 mg/kg/injection, schedule: Q01DX005 (ip), vehicle: Klucel (hydroxypropylcellulose) (HPC) 100 % of control | dose: 24.0 mg/kg/injection, schedule: Q01DX005 (ip), vehicle: Klucel (hydroxypropylcellulose) (HPC) 98 % of control

O=C(O)/C(=C\c1ccccn1)c1ccccc1
inactive: dose: 100.0 mg/kg/injection, schedule: Q04DX002 (ip), vehicle: saline with Tween-80 105 % of control | dose: 200.0 mg/kg/injection, schedule: Q04DX002 (ip), vehicle: saline with Tween-80 105 % of control | dose: 400.0 mg/kg/injection, schedule: Q04DX002 (ip), vehicle: saline with Tween-80 105 % of control

Cn1c(N)c(C(=O)c2cccs2)c(=O)n(C)c1=O
inactive: [6] 96 % of control | [7] 88 % of control | [8] 96 % of control

Cc1ccc(S(=O)(=O)N/N=C/c2c(-c3ccc(-c4ccccc4)cc3)nc3sccn23)cc1
inactive: dose: 100.0 mg/kg/injection, schedule: Q01DX001 (ip), vehicle: Klucel (hydroxypropylcellulose) (HPC) 94 % of control | [9] 86 % of control | dose: 400.0 mg/kg/injection, schedule: Q01DX001 (ip), vehicle: Klucel (hydroxypropylcellulose) (HPC) 88 % of control

CC(=O)c1ccccc1N=Nc1ccc(N(CCCl)CCCl)cc1C
inactive: [10] 98 % of control | [1] 104 % of control and 108 % of control | [2] 96 % of control | [3] 123 % of control

CCC(CCC(C)C1CCC2C3CC=C4CC(OC(=O)CCC(=O)O)CCC4(C)C3CCC12C)C(C)C (configuration not stated)
inactive: dose: 100.0 mg/kg/injection, schedule: Q04DX003 (ip), vehicle: saline with Tween-80 95 % of control | dose: 200.0 mg/kg/injection, schedule: Q04DX003 (ip), vehicle: saline with Tween-80 87 % of control | dose: 400.0 mg/kg/injection, schedule: Q04DX003 (ip), vehicle: saline with Tween-80 87 % of control

Nc1ccn(C2CC(O)C(CO)O2)c(=O)n1 (configuration not stated)
inactive: dose: 4.6 mg/kg/injection, schedule: Q01DX009 (ip), vehicle: water 95 % of control | dose: 9.38 mg/kg/injection, schedule: Q01DX009 (ip), vehicle: water 100 % of control | dose: 18.75 mg/kg/injection, schedule: Q01DX009 (ip), vehicle: water 105 % of control and 87 % of control | dose: 37.5 mg/kg/injection, schedule: Q01DX009 (ip), vehicle: water 112 % of control | dose: 75.0 mg/kg/injection, schedule: Q01DX009 (ip), vehicle: water 96 % of control | dose: 150.0 mg/kg/injection, schedule: Q01DX009 (ip), vehicle: water 103 % of control

CC(=O)OC1CC2C(=[N+]=[N-])C(=O)C1(C)C2(C)C (configuration not stated)
inactive: [4] 108 % of control | [5] 107 % of control | dose: 200.0 mg/kg/injection, schedule: Q01DX005 (ip), vehicle: saline with Tween-80 108 % of control

CCCCCCCNc1nn[nH]n1
inactive: dose: 50.0 mg/kg/injection, schedule: Q01DX005 (ip), vehicle: Klucel (hydroxypropylcellulose) (HPC) 100 % of control | dose: 100.0 mg/kg/injection, schedule: Q01DX005 (ip), vehicle: Klucel (hydroxypropylcellulose) (HPC) 104 % of control | dose: 200.0 mg/kg/injection, schedule: Q01DX005 (ip), vehicle: Klucel (hydroxypropylcellulose) (HPC) 98 % of control

O=C(N=Nc1c(Cl)c(O)c2ccccc2c1O)C(F)(F)F
inactive: dose: 1.56 mg/kg/injection, schedule: Q01DX009 (ip), vehicle: saline with Tween-80 101 % of control | dose: 3.13 mg/kg/injection, schedule: Q01DX009 (ip), vehicle: saline with Tween-80 110 % of control | dose: 6.25 mg/kg/injection, schedule: Q01DX009 (ip), vehicle: saline with Tween-80 115 % of control

NNC(=O)C(=O)NCc1ccco1
inactive: dose: 12.5 mg/kg/injection, schedule: Q01DX009 (ip), vehicle: saline with Tween-80 88 % of control | [10] 98 % of control | [1] 95 % of control

CC(=O)OCNCOC(C)=O
inactive: dose: 100.0 mg/kg/injection, schedule: Q01DX009 (ip), vehicle: saline 106 % of control | dose: 200.0 mg/kg/injection, schedule: Q01DX009 (ip), vehicle: saline 108 % of control | dose: 400.0 mg/kg/injection, schedule: Q01DX009 (ip), vehicle: saline 106 % of control

[NH2-].[NH2-].[NH2-].[NH2-].[NH2-].[NH2-].[Ni]
inactive: dose: 6.25 mg/kg/injection, schedule: Q01DX001 (ip), vehicle: saline 97 % of control | dose: 12.5 mg/kg/injection, schedule: Q01DX001 (ip), vehicle: saline 100 % of control | dose: 25.0 mg/kg/injection, schedule: Q01DX001 (ip), vehicle: saline 98 % of control
